The values that follow come from patent US8921376B2, “Pyrrolopyridines useful as inhibitors of protein kinase” (Vertex Pharmaceuticals Incorporated, priority 2005, dated 2014).

Structures are written as SMILES.

One may read the Ki as the dissociation constant of the complex between target and ligand, obtained from inhibition or displacement.

Common to all, as to type: biochemical
Holding throughout (details): Table 6; enzyme inhibition data (Ki)

One experiment addresses T1, JAK3 (Homo sapiens, UniProt P52333).
T1 sequence (P52333 1-1124): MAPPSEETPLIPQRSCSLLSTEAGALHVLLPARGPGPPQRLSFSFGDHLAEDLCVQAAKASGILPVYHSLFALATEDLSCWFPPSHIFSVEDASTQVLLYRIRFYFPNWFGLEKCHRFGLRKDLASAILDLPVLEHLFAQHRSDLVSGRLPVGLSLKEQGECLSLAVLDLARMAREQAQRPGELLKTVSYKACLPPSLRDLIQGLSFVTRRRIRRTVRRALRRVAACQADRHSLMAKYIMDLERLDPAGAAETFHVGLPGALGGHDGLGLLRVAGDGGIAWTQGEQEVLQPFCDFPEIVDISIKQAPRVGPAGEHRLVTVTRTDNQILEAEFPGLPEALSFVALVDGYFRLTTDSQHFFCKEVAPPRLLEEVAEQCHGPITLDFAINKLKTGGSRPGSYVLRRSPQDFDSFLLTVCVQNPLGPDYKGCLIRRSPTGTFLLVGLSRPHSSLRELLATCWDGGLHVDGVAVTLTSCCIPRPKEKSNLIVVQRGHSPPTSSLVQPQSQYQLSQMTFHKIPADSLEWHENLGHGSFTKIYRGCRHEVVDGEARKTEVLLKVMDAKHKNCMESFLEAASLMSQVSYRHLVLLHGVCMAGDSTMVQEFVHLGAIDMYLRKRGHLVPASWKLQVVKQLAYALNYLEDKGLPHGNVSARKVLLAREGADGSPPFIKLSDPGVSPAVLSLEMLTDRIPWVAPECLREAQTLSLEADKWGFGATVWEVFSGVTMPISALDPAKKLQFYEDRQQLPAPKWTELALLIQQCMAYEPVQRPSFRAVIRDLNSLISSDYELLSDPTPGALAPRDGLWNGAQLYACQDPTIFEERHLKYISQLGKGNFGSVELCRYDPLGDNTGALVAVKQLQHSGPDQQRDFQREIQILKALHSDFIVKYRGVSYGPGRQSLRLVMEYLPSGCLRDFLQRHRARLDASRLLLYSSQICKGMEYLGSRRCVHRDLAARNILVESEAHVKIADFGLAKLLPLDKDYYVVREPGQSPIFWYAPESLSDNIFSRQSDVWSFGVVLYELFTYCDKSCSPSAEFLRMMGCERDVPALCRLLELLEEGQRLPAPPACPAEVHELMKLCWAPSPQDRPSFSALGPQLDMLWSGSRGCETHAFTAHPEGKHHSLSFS
As to the kind of experiment: JAK3 inhibition assay (33P incorporation into poly(Glu)4Tyr). An outline of the steps: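 Human JAK3 at 1 nM phosphorylated 1 μM poly(Glu)4Tyr using 5 μM [33P]ATP in HEPES pH 7.4 buffer with MgCl2, DTT and BSA. Reactions ran 20 min at 25° C. and were stopped with TCA. 33P incorporation was measured by scintillation after glass-fiber filter capture.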

The next experiment concerns the target JAK2 (Homo sapiens, UniProt O60674). Nature of the experiment: JAK2 inhibition assay (as Example 3 with JAK-2 enzyme). Put shortly: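 Radiometric JAK2 kinase assay: poly(Glu)4Tyr substrate at final 15 μM, ATP at final 12 μM with [33P]; buffer 100 mM HEPES pH 7.4, 1 mM DTT, 10 mM MgCl2, 25 mM NaCl, 0.01% BSA. 20 min at 25 °C, TCA-stopped, 33P incorporation counted after filter capture.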

Another experiment addresses ROCK I (Homo sapiens, UniProt Q13464). As to the kind of experiment: ROCK-I inhibition assay (radioactive enzyme assay, MBP substrate). Put shortly:
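Human ROCK at 5 nM phosphorylated 27 μM myelin basic protein with 13 μM [γ-33P]ATP (final) in HEPES pH 7.5, MgCl2, NaCl, DTT and 1.5% DMSO. Reactions ran 2 h at room temperature before TCA quench and filter-plate scintillation counting. After background subtraction, data were fit to give Ki(app).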

Sequence of ROCK I (Q13464 whole entry): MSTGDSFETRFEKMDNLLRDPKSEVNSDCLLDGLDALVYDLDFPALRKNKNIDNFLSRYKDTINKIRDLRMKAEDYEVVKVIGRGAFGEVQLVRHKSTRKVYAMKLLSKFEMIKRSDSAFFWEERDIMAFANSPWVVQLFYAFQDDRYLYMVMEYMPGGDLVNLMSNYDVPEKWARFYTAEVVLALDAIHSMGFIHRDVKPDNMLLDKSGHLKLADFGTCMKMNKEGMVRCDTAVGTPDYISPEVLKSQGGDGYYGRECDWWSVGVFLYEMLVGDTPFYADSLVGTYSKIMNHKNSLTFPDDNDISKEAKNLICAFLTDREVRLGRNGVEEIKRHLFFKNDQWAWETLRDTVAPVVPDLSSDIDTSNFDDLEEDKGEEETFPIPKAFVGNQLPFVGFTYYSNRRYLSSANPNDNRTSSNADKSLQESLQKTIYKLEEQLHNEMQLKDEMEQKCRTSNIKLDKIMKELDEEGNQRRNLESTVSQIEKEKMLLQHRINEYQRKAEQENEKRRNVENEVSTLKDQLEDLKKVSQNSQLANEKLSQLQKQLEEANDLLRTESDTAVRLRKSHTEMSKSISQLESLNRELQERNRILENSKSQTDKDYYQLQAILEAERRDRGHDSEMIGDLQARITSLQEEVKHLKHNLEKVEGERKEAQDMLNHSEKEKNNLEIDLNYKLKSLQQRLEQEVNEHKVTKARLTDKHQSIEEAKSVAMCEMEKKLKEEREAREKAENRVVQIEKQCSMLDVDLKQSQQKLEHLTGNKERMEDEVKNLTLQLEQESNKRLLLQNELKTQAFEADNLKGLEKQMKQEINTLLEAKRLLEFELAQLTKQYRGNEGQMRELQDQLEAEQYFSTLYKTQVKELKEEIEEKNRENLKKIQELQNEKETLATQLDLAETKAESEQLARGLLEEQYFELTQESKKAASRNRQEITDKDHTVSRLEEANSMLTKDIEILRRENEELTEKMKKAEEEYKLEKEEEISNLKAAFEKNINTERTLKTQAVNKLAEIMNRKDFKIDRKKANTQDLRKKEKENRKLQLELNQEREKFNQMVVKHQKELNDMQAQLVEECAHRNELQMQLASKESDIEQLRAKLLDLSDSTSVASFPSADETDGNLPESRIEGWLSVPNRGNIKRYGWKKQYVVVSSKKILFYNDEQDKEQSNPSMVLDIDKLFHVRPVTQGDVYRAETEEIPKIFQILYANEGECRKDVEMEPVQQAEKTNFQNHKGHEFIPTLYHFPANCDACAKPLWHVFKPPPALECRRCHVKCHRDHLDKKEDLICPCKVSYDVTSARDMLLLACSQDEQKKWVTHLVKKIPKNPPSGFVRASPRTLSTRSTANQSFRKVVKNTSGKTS
Sequence of JAK2 (O60674 whole entry): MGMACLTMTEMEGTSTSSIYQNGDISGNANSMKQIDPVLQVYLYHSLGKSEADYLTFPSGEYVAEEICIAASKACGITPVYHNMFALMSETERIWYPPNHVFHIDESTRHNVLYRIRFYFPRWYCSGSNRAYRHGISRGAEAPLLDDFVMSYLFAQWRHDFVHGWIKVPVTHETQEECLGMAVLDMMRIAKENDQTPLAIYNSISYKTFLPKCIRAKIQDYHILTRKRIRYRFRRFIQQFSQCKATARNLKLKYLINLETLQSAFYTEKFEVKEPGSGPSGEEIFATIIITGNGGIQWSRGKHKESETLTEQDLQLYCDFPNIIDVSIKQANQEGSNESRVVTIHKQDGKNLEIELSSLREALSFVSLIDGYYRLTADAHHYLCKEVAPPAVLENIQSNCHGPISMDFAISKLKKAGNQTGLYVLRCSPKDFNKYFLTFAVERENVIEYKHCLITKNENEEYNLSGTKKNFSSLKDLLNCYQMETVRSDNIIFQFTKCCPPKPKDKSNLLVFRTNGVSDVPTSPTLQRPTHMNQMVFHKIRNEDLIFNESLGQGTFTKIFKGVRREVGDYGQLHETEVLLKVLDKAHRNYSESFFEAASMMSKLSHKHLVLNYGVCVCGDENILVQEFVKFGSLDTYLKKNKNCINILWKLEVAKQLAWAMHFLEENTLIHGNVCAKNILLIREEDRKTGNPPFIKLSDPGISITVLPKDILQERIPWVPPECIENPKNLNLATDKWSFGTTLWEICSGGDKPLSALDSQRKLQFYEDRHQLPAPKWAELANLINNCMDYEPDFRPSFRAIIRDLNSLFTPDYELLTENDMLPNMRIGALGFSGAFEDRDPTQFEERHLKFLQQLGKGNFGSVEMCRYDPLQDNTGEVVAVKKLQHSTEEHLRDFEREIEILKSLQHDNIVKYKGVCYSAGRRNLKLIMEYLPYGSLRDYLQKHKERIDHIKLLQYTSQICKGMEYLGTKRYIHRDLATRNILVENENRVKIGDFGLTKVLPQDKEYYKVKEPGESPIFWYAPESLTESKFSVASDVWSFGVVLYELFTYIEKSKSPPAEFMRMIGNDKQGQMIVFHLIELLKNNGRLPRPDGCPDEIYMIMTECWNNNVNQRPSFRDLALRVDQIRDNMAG

On to `NC(=O)c1ccccc1-c1ccnc2[nH]ccc12` [compound 380], for which the Ki at JAK3 was above 5000 nM; on JAK2, above 5000 nM; at ROCK I it was above 4000 nM.

Consider `CNc1ccccc1-c1ccnc2[nH]ccc12` [compound 381], for which the values for the Ki at JAK3, at JAK2 and at ROCK I were 500 to 5000 nM, 500 to 5000 nM and above 4000 nM, respectively.

In the case of `Fc1cnc2[nH]ccc2c1-c1ccc(CN(CCC(F)(F)F)CC2CC2)o1` [compound 382], the Ki at JAK3 is below 500 nM; at JAK2 it was below 500 nM; at ROCK I, 500 to 5000 nM.

In the case of `C=CCN(CC=C)C(=O)c1cc(-c2c(F)cnc3[nH]ccc23)c[nH]1` [compound 383], the Ki on JAK3 is below 500 nM; on JAK2, below 500 nM; at ROCK I, 500 to 5000 nM.

For `N#CCCN(CCC(F)(F)F)C(=O)c1cc(-c2c(F)cnc3[nH]ccc23)c[nH]1` [compound 384], the inhibition constant Ki at JAK3 was below 500 nM; on JAK2 it was below 500 nM; on ROCK I it was 500 to 5000 nM.

Consider `C=CCN(C(=O)c1cc(-c2c(F)cnc3[nH]ccc23)c[nH]1)C(C)c1ccccc1` (stereo not drawn) [compound 385], for which the figures for the Ki on JAK3, at JAK2 and on ROCK I were below 500 nM, below 500 nM and 500 to 5000 nM, respectively.

`CN(CCC#N)C(=O)c1cc(-c2c(F)cnc3[nH]ccc23)c[nH]1` [compound 386]: the Ki on JAK3 was below 500 nM; on JAK2 it was below 500 nM; at ROCK I, 500 to 5000 nM.

With `O=C(c1cc(-c2c(F)cnc3[nH]ccc23)c[nH]1)N(CC1CC1)CC(F)(F)F` [compound 387], the inhibition constant (Ki) at JAK3, at JAK2 and at ROCK I was below 500 nM throughout.

For `CCCN(CC(F)(F)F)C(=O)c1cc(-c2c(F)cnc3[nH]ccc23)c[nH]1` [compound 388], the Ki on JAK3, at JAK2 and at ROCK I was below 500 nM each time.

For `O=C(c1cc(-c2c(F)cnc3[nH]ccc23)c[nH]1)N(CCC(F)(F)F)Cc1ccccc1` [compound 389], the results for the Ki at JAK3, on JAK2 and at ROCK I were below 500 nM, below 500 nM and 500 to 5000 nM, respectively.

Regarding `O=C(c1cc(-c2c(F)cnc3[nH]ccc23)c[nH]1)N(CCC(F)(F)F)CC1CC1` [compound 390], the Ki on JAK3 was below 500 nM; at JAK2 it was below 500 nM; at ROCK I, 500 to 5000 nM.

Take `N#CCN(Cc1ccccc1)C(=O)c1cc(-c2c(F)cnc3[nH]ccc23)c[nH]1` [compound 391]: the Ki on JAK3, at JAK2 and on ROCK I was below 500 nM in each case.

For the compound `CCCN(CC1CC1)C(=O)c1cc(-c2c(F)cnc3[nH]ccc23)c[nH]1` [compound 392], the Ki is below 500 nM at JAK3, below 500 nM on JAK2 and 500 to 5000 nM on ROCK I.

As to `CN(CC(F)(F)F)C(=O)c1cc(-c2c(F)cnc3[nH]ccc23)c[nH]1` [compound 393], the Ki at JAK3, at JAK2 and at ROCK I was below 500 nM in each case.

As to `N#CCCN(Cc1ccccc1)C(=O)c1cc(-c2c(F)cnc3[nH]ccc23)c[nH]1` [compound 394], the Ki on JAK3, at JAK2 and at ROCK I was below 500 nM in each case.

Regarding `CCN(Cc1ccccc1)C(=O)c1cc(-c2c(F)cnc3[nH]ccc23)c[nH]1` [compound 395], the Ki on JAK3 was below 500 nM; at JAK2, below 500 nM; at ROCK I, 500 to 5000 nM.

Regarding `CCCN(CCC#N)C(=O)c1cc(-c2c(F)cnc3[nH]ccc23)c[nH]1` [compound 396], the Ki on JAK3, on JAK2 and at ROCK I was below 500 nM throughout.

As for `CCCCN(CCC#N)C(=O)c1cc(-c2c(F)cnc3[nH]ccc23)c[nH]1` [compound 397], the inhibitory constant (Ki) on JAK3, on JAK2 and on ROCK I was below 500 nM throughout.

For `N#CCCN(CC1CC1)C(=O)c1cc(-c2c(F)cnc3[nH]ccc23)c[nH]1` [compound 398], the Ki on JAK3, at JAK2 and on ROCK I was below 500 nM each time.

Regarding `N#CCN(Cc1cccc(Cl)c1)C(=O)c1cc(-c2c(F)cnc3[nH]ccc23)c[nH]1` [compound 399], the Ki on JAK3, on JAK2 and at ROCK I was below 500 nM each time.

`N#CCN(Cc1ccc(F)cc1)C(=O)c1cc(-c2c(F)cnc3[nH]ccc23)c[nH]1` [compound 400]: the Ki on JAK3, on JAK2 and on ROCK I was below 500 nM throughout.

As for `C=CCN(CC=C)C(=O)c1csc(-c2ccnc3[nH]ccc23)n1` [compound 401], the Ki at JAK3, at JAK2 and at ROCK I was below 500 nM throughout.

For `O=C(c1csc(-c2ccnc3[nH]ccc23)n1)N(CCC(F)(F)F)CC1CC1` [compound 402], the Ki at JAK3, on JAK2 and at ROCK I was below 500 nM in each case.

For `N#CCCN(CC(F)(F)F)C(=O)c1csc(-c2ccnc3[nH]ccc23)n1` [compound 403], the inhibition constant Ki at JAK3, on JAK2 and at ROCK I was below 500 nM each time.

Take `CCN(Cc1ccccc1)C(=O)c1csc(-c2ccnc3[nH]ccc23)n1` [compound 404]: the Ki at JAK3, at JAK2 and on ROCK I was below 500 nM each time.

Take `N#CCCN(CCC(F)(F)F)C(=O)c1csc(-c2ccnc3[nH]ccc23)n1` [compound 405, 2-(1H-Pyrrolo[2,3-b]pyridin-4-yl)-thiazole-4-carboxylic acid (2-cyano-ethyl)-(3,3,3-trifluoro-propyl)-amide]: the Ki on JAK3, on JAK2 and on ROCK I was below 500 nM throughout.

With `O=C(c1csc(-c2ccnc3[nH]ccc23)n1)N(CC1CC1)CC(F)(F)F` [compound 406], the Ki at JAK3, at JAK2 and on ROCK I was below 500 nM throughout.

For `CCCN(CC(F)(F)F)C(=O)c1csc(-c2ccnc3[nH]ccc23)n1` [compound 407], the inhibition constant Ki at JAK3, on JAK2 and on ROCK I was below 500 nM throughout.

Take `C=CCN(C(=O)c1csc(-c2ccnc3[nH]ccc23)n1)[C@@H](C)c1ccccc1` [compound 408]: the Ki at JAK3, at JAK2 and at ROCK I was below 500 nM in each case.

Regarding `N#CCCN(CC1CC1)C(=O)c1csc(-c2ccnc3[nH]ccc23)n1` [compound 409], the inhibition constant Ki at JAK3, at JAK2 and at ROCK I was below 500 nM throughout.

With `C=CCN(C(=O)c1csc(-c2ccnc3[nH]ccc23)n1)C1CCCC1` [compound 410], the Ki at JAK3, at JAK2 and on ROCK I was below 500 nM in each case.

With `O=C(c1csc(-c2ccnc3[nH]ccc23)n1)N1CCC(CO)CC1` [compound 411], the Ki at JAK3, at JAK2 and on ROCK I was 500 to 5000 nM throughout.

For `O=C(NCC1CC1)c1csc(-c2ccnc3[nH]ccc23)n1` [compound 412], the Ki was below 500 nM on JAK3, below 500 nM at JAK2 and 500 to 5000 nM on ROCK I.

Take `CC(C)CCNC(=O)c1csc(-c2ccnc3[nH]ccc23)n1` [compound 413]: the Ki is 500 to 5000 nM at JAK3, below 500 nM at JAK2 and 500 to 5000 nM on ROCK I.

With `CC1CC[C@@H](C)N1C(=O)c1csc(-c2ccnc3[nH]ccc23)n1` (stereo partly drawn) [compound 414], the inhibition constant (Ki) at JAK3, on JAK2 and at ROCK I was below 500 nM throughout.

Take `O=C(c1csc(-c2ccnc3[nH]ccc23)n1)N1CC=CC1` [compound 415]: the Ki on JAK3 is 500 to 5000 nM; on JAK2 it was below 500 nM; at ROCK I it was below 500 nM.
